Legend:
ZEAMA Sileno [1] = assay: Tank-mix post-emergence crop damage, greenhouse, visual assessment; type: in vivo, maize; design: key to Reduction [Difference]: % points: herbicide damage without safener − damage with safener
TRZAS Triso [2] = assay: as above; type: in vivo, spring wheat; conditions: 21 DAT; for Reduction [%] / Reduction [Difference]: isoxadifen-ethyl 50 g a.i./ha; for HER effect: no safener
Experimental: (§1) Seeds of crops (spring wheat, TRZAS; spring barley, HORVS; maize, ZEAMA) were placed in sandy loam soil in peat pots, covered with soil and cultivated in a greenhouse under good growth conditions. Two to three weeks after sowing, the test plants were treated at the 1 to 3-leaf stage. The herbicide/safener active compound combinations according to the invention, formulated as wettable powders or emulsion concentrates, and, in parallel tests, the correspondingly formulated individual active compounds were sprayed onto the green parts of the plants in various dosages using an amount of water of 300 l/ha (converted).
(§2) The pots were returned under good growing conditions in a glasshouse and a visual assessment of herbicidal effects was made at intervals from 1 to 3 weeks after herbicide application (DAT=days after treatment). Assessment was on a percentage basis in comparison with untreated control plants (0%=no injury, 100%=complete kill).
(§3) Reduction[Difference]=herbicide damage without safener−herbicide damage with safener Reduction[%]=(Reduction[Difference]*100)/herbicide damage without safener
5d) Plant Species, Variety: TRZAS Triso, Safener (SAF): Isoxadifen-Ethyl

ZEAMA Sileno [3] = assay: Safener seed treatment, pre-emergence herbicide, crop damage; type: in vivo, maize; design: key to Reduction [Difference]: % crop damage without safener minus % damage with safener; conditions: HER 40 g a.i./ha pre-emergence, 14 DAT
Experimental: (§4) For the safener seed treatment, sufficient seeds of the respective crops (spring wheat, TRZAS; spring barley, HORVS; maize, ZEAMA) were weighed into screw top glass bottles approximately twice the volume of the seeds.
(§5) The specified safeners, formulated as wettable powder (WP) were weighed out so that the specified rates (g a.i./kg seed) would be obtained, dissolved in water (1 ml water per 10 g of seeds), and added to the seeds to produce a slurry.
(§6) The bottles were capped and then placed in an overhead shaker (set at medium speed for ca. 60 minutes) so that the seeds were evenly coated with the slurry. The bottles were uncapped and the seeds were either placed on paper and dried for an interval of 3-4 hours prior to sowing, or directly sown. Seeds were placed in sandy loam soil in pots of a diameter of 7-8 cm, and covered with soil.
(§7) Pre-emergence application of the specified herbicides was done subsequently, on two sets of plants: a) seed treatment with safener, as described above
(§8) The herbicides were formulated as WP and was sprayed onto the soil surface as an aqueous suspension at an equivalent water application rate of 300 l/ha.
(§9) After application, the test plants were kept in the greenhouse under good growth conditions. At intervals up to 4 weeks after application (=28 days after treatment; DAT), % crop damage observed on the treated plants was scored visually in comparison to control plants that had not received any safener or herbicide treatment.
(§10) Values in the table below are mean values of at least 2 replicates.
Reduction[Difference]=herbicide damage without safener−herbicide damage with safener Reduction[%]=(Reduction[Difference]*100)/herbicide damage without safener […]
c) Plant Species, Variety: ZEAMA Sileno, Safener (SAF): Isoxadifen-Ethyl

HORVS Montoya [4] = assay: as above; type: in vivo, spring barley; design: key to Reduction [Difference]: % crop damage without safener minus % damage with safener; conditions: HER 15 g a.i./ha pre-emergence, 11 DAT (Interim)
Experimental: as §4, §5, §6, §7, §8, §9, §10
Reduction[Difference]=herbicide damage without safener−herbicide damage with safener Reduction[%]=(Reduction[Difference]*100)/herbicide damage without safener b) Plant Species, Variety: HORVS Montoya, Safener (SAF): Isoxadifen-Ethyl

HORVS Montoya [5] = assay: Tank-mix post-emergence crop damage, greenhouse, visual assessment; type: in vivo, spring barley; conditions: 10 DAT
Experimental: as §1, §2, §3
c) Plant Species, Variety: HORVS Montoya, Safener (SAF): Isoxadifen-Ethyl

TRZAS Triso [6] = assay: Safener seed treatment, pre-emergence herbicide, crop damage; type: in vivo, spring wheat; design: key to Reduction [Difference]: % crop damage without safener minus % damage with safener; conditions: HER 5 g a.i./ha pre-emergence; for Reduction [%] / Reduction [Difference]: isoxadifen-ethyl 0.25 g a.i./kg seed; for HER effect + SAF: isoxadifen-ethyl seed treatment 0.25 g a.i./kg seed; for HER effect: no safener
Experimental: as §4, §5, §6, §7, §8, §9, §10
Reduction[Difference]=herbicide damage without safener−herbicide damage with safener Reduction[%]=(Reduction[Difference]*100)/herbicide damage without safener a) Plant Species, Variety: TRZAS Triso, Safener (SAF): Isoxadifen-Ethyl

[7] = HER 2 g a.i./ha, isoxadifen-ethyl 50 g a.i./ha, Final
[8] = HER 0.25 g a.i./ha + isoxadifen-ethyl 50 g a.i./ha
[9] = isoxadifen-ethyl 0.25 g a.i./kg seed
[10] = isoxadifen-ethyl seed treatment 0.25 g a.i./kg seed
[11] = HER 0.25 g a.i./ha, isoxadifen-ethyl 50 g a.i./ha

C=CC1(C(=O)NC2COC(C(=O)OC)C2)CC(c2cc(F)cc(F)c2)=NO1 (mixture of isomers) [Example 1.68]
HER effect + SAF (ZEAMA Sileno [1]; HER 2 g a.i./ha + isoxadifen-ethyl 50 g a.i./ha, Final): 25% | Reduction [%] (ZEAMA Sileno [1]; [7]): 58% | Reduction [Difference] (ZEAMA Sileno [1]; [7]): 35 | HER effect (ZEAMA Sileno [1]; HER 2 g a.i./ha, no safener, Final assessment, 0%=no injury, 100%=complete kill): 60% | HER effect + SAF (TRZAS Triso [2]; [8]): 20% | Reduction [%] (TRZAS Triso [2]; HER 0.25 g a.i./ha): 50% | Reduction [Difference] (TRZAS Triso [2]; HER 0.25 g a.i./ha): 20 | HER effect (TRZAS Triso [2]; HER 0.25 g a.i./ha): 40% | HER effect + SAF (TRZAS Triso [2]; HER 1 g a.i./ha + isoxadifen-ethyl 50 g a.i./ha): 70% | Reduction [%] (TRZAS Triso [2]; HER 1 g a.i./ha): 25% | Reduction [Difference] (TRZAS Triso [2]; HER 1 g a.i./ha): 23 | HER effect (TRZAS Triso [2]; HER 1 g a.i./ha): 93% | Reduction [%] (ZEAMA Sileno [3]; [9]): 25% | Reduction [Difference] (ZEAMA Sileno [3]; [9]): 23 | HER effect + SAF (ZEAMA Sileno [3]; [10]): 70% | HER effect (ZEAMA Sileno [3]; no safener): 93% | Reduction [%] (HORVS Montoya [4]; [9]): 31% | Reduction [Difference] (HORVS Montoya [4]; [9]): 20 | HER effect + SAF (HORVS Montoya [4]; [10]): 45% | HER effect (HORVS Montoya [4]; no safener): 65% | HER effect + SAF (HORVS Montoya [5]; [8]): 0% | Reduction [%] (HORVS Montoya [5]; [11]): 100% | Reduction [Difference] (HORVS Montoya [5]; [11]): 20 | HER effect (HORVS Montoya [5]; HER 0.25 g a.i./ha, no safener): 20% | Reduction [%] (TRZAS Triso [6]; 11 DAT (Interim)): 44% | Reduction [Difference] (TRZAS Triso [6]; 11 DAT (Interim)): 20 | Reduction [%] (TRZAS Triso [6]; 21 DAT (Final)): 56% | Reduction [Difference] (TRZAS Triso [6]; 21 DAT (Final)): 25 | HER effect + SAF (TRZAS Triso [6]; 11 DAT (Interim)): 25% | HER effect + SAF (TRZAS Triso [6]; 21 DAT (Final)): 20% | HER effect (TRZAS Triso [6]; 11 DAT (Interim)): 45% | HER effect (TRZAS Triso [6]; 21 DAT (Final)): 45%

From US20230217926A1, “SELECTIVE HERBICIDES BASED ON SUBSTITUTED ISOXAZOLIN CARBOXAMIDES AND ISOXADIFEN-ETHYL” (BAYER AKTIENGESELLSCHAFT, priority 2020, published 2023)
